{"source": "paper PMC2920492", "about": "(Journal of medicinal chemistry, 2010)", "key": {"global H3K4me2 [1]": {"test_system": "global H3K4me2", "conditions": "P19 cell line; cited from earlier work"}, "recombinant human LSD1 [2]": {"target": "T1, recombinant human LSD1 (Homo sapiens, UniProt O60341)", "conditions": "10 μM; cited from earlier work"}, "global H3K4me2 [3]": {"test_system": "global H3K4me2", "conditions": "HCT116 cells, 48 hr exposure, increasing concentrations; cited from earlier work"}, "global H3K4me1 [4]": {"test_system": "global H3K4me1", "conditions": "HCT116 cells, 48 hr exposure, increasing concentrations; cited from earlier work"}, "global H3K9me2": {"test_system": "global H3K9me2", "conditions": "HCT116 cells, 48 hr exposure, increasing concentrations; cited from earlier work"}, "recombinant human LSD1 [5]": {"target": "T1, recombinant human LSD1", "format": "biochemical", "conditions": "read-out: reduction of LSD1 activity (inhibition), 10 μM"}, "[6]": {"test_system": "HCT116 human colon carcinoma", "conditions": "compound alone; cited from earlier work"}, "global H3K4me1 [7]": {"test_system": "global H3K4me1", "assay": "Global H3K4me1 levels by quantitative Western blot in Calu-6 cells", "format": "cell-based, human", "conditions": "10 μM"}, "global H3K4me2 [8]": {"test_system": "global H3K4me2", "assay": "Global H3K4me2 levels by quantitative Western blot in Calu-6 cells", "format": "cell-based, human", "conditions": "10 μM"}, "GATA4": {"test_system": "GATA4", "assay": "GATA4 mRNA re-expression by qPCR in Calu-6 cells", "format": "cell-based, human", "conditions": "5 and 10 μM, 24 h"}, "SFRP2": {"test_system": "SFRP2", "assay": "SFRP2 mRNA re-expression by qPCR in Calu-6 cells", "format": "cell-based, human", "conditions": "10 μM, 24 h"}, "[9]": {"test_system": "recombinant LSD1/CoRest complex", "conditions": "cited from earlier work"}}}
{"smiles": "N[C@@H]1C[C@H]1c1ccccc1", "note": "(racemic) [tranylcypromine]", "values": [{"measurement": "global levels of H3K4me2", "setting": "global H3K4me2 [1]", "value": "increase"}]}
{"smiles": "C/N=C(\\NC)NCCCNCCCNCCCN/C(=N/C)NC.Cl", "note": "[Compound 1c]", "values": [{"measurement": "%LSD1 activity remaining", "setting": "recombinant human LSD1 [2]", "value": "14.1 (from [ref. 25]) %"}, {"measurement": "global H3K4me2", "setting": "global H3K4me2 [3]", "value": "significant global increases"}, {"measurement": "global H3K4me1", "setting": "global H3K4me1 [4]", "value": "significant global increases"}, {"measurement": "global H3K9me2 levels", "setting": "global H3K9me2", "value": "not affecting"}]}
{"smiles": "Cl.N=C(NCCCNCCCCCCCNCCCNC(=N)NC(=N)NCCC(c1ccccc1)c1ccccc1)NC(=N)NCCC(c1ccccc1)c1ccccc1", "note": "[Compound 2d]", "values": [{"measurement": "inhibition at 10 µM", "setting": "recombinant human LSD1 [5]", "value": 82.9, "unit": "%"}, {"measurement": "global H3K4me2", "setting": "global H3K4me2 [3]", "value": "significant global increases"}, {"measurement": "global H3K4me1", "setting": "global H3K4me1 [4]", "value": "significant global increases"}, {"measurement": "global H3K9me2 levels", "setting": "global H3K9me2", "value": "not affecting"}, {"measurement": "effect on tumor cell growth", "setting": "[6]", "value": "little effect"}]}
{"smiles": "Cl.Cl.S=C(NCCCNCCCCCCCNCCCNC(=S)NCC(c1ccccc1)c1ccccc1)NCC(c1ccccc1)c1ccccc1", "note": "[Compound 25, 1,15-bis-{3-[1-(2,2-diphenylethyl)thioureado]}-4,12-diazapentadecane]", "values": [{"measurement": "global H3K4me1 level", "setting": "global H3K4me1 [7]; 24 h", "value": "significant increases"}, {"measurement": "global H3K4me1 level", "setting": "global H3K4me1 [7]; 48 h", "value": "most dramatic increases"}, {"measurement": "global H3K4me2 level", "setting": "global H3K4me2 [8]; 24 h", "value": "significant increases"}, {"measurement": "global H3K4me2 level", "setting": "global H3K4me2 [8]; 48 h", "value": "most dramatic increases"}, {"measurement": "effect on GATA4 levels", "setting": "GATA4", "value": "did not produce significant increases"}]}
{"smiles": "Cl.Cl.S=C(NCCCNCCCCNCCCNC(=S)NCC(c1ccccc1)c1ccccc1)NCC(c1ccccc1)c1ccccc1", "note": "[Compound 26, 1,12-bis-{3-[1-(2,2-diphenylethyl)thioureado]}-4,9-diazadodecane]", "values": [{"measurement": "global H3K4me1 level", "setting": "global H3K4me1 [7]; 24 h", "value": "significant increase"}, {"measurement": "global H3K4me1 level", "setting": "global H3K4me1 [7]; 48 h", "value": "increase"}, {"measurement": "global H3K4me2 level", "setting": "global H3K4me2 [8]; 24 h", "value": "decreased"}, {"measurement": "global H3K4me2 level", "setting": "global H3K4me2 [8]; 48 h", "value": "reduction"}, {"measurement": "effect on GATA4 levels", "setting": "GATA4", "value": "did not produce significant increases"}]}
{"smiles": "Cl.Cl.S=C(NCCCNCCCNCCCNC(=S)NCC(c1ccccc1)c1ccccc1)NCC(c1ccccc1)c1ccccc1", "note": "[Compound 27, 1,11-bis-{3-[1-(2,2-diphenylethyl)thioureado]}-4,8-diazaundecane]", "values": [{"measurement": "global H3K4me1 level", "setting": "global H3K4me1 [7]; 24 h", "value": "significant increases"}, {"measurement": "global H3K4me2 level", "setting": "global H3K4me2 [8]; 24 h", "value": "significant increases"}, {"measurement": "increase in SFRP2 expression", "setting": "SFRP2", "value": 4.8, "unit": "fold"}]}
{"smiles": "NNCCc1ccccc1", "note": "[phenelzine]", "values": [{"measurement": "nucleosomal demethylation", "setting": "[9]", "value": "inactivate"}, {"measurement": "global levels of H3K4me2", "setting": "global H3K4me2 [1]", "value": "increase"}]}
